Laboratory results from patent US20230407243A1, “GENETIC PLATFORM TO INVESTIGATE THE FUNCTIONS OF BACTERIAL DRUG EFFLUX PUMPS” (priority 2022, published 2023).

Columns and labels:
Type in all cases: cell-based, Escherichia coli
[1] = test system: EKO-35-Pore; assay: MIC susceptibility profiling, porinated strain
Outline: (§1)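 Strains carry the fhuA ΔC/Δ4L pore integrated between glmS and pstS under a constitutive promoter, with pore activity checked by vancomycin susceptibility. Overnight LB cultures were adjusted in PBS pH 7.4 to OD600 ~1.0 and diluted 1/2000 into MHB II. 2-fold compound titrations were read by OD600 after 18 h at 37 °C.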

[2] = test system: EKO-35 araC::acrB Pore; assay: MIC susceptibility profiling, porinated efflux platform
Outline: as §1

[3] = test system: EKO-35 araC::emrKY Pore; assay: as above
Outline: as §1

[4] = test system: EKO-35 araC::mexCD Pore; assay: as above
Outline: as §1

[5] = test system: EKO-35 araC::acrBD408A Pore; assay: as above
Outline: as §1

[6] = test system: EKO-35 araC::mdtEF Pore; assay: as above
Outline: as §1

[7] = test system: EKO-35 araC::acrD Pore; assay: as above
Outline: as §1

[8] = test system: EKO-35 araC::emrAB Pore; assay: as above
Outline: as §1

[9] = test system: EKO-35 araC::macAB Pore; assay: as above
Outline: as §1

[10] = test system: EKO-35 araC::mdtBC Pore; assay: as above
Outline: as §1

[11] = test system: EKO-35 araC::acrEF Pore; assay: as above; settings: Table 14A; porinated; technical duplicate
Outline: as §1

[12] = test system: wild-type E. coli K-12 str. BW25113; assay: microbe, parasite or virus in culture; settings: technical duplicate
Outline: (§2)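 Steps: LB overnight culture at 37 °C; resuspension in PBS to OD600 ~1.0; 1/2000 dilution in MHB II; addition to 2-fold serial compound dilutions (duplicate); 18 h shaking incubation at 37 °C; OD600 read, with pre-read subtracted.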

[13] = test system: E. coli ΔtolC; assay: microbe, parasite or virus in culture; settings: technical duplicate
Outline: as §2

[14] = test system: E. coli EKO-35; assay: microbe, parasite or virus in culture
Outline: as §2

[15] = test system: EKO-35 araC::mdtEF; assay: MIC susceptibility profiling, efflux platform
Outline: as §2

[16] = test system: EKO-35 araC::mdtBC; assay: MIC susceptibility profiling, efflux platform
Outline: as §2

[17] = test system: ΔtolC-Pore; assay: microbe, parasite or virus in culture; settings: technical duplicate
Outline: as §1

[18] = test system: wild-type (WT) K-12-Pore; assay: microbe, parasite or virus in culture; settings: technical duplicate
Outline: as §1

[19] = Table 14A, porinated, technical duplicate
[20] = Table 13A, non-porinated, technical duplicate

## O=[N+]([O-])c1ccc2c(c1)C(=NO)c1cc([N+](=O)[O-])ccc1-2 [compound 11]
[1]; EKO-35-Pore compared to EKO-35-Pore (reference)
  Fold changes of MICs: 1 fold
[1]; Table 10, with pore, technical duplicate
  Minimum inhibitory concentration (MIC), Pore EKO-35: 0.078 µg/mL
[1]; [19]
  Minimum inhibitory concentration, EKO-35-Pore: 0.078 µg/mL
[2]; EKO-35 araC::acr-B Pore compared to EKO-35-Pore
  Fold changes of MICs: 1024 fold
[2]; [19]
  Minimum inhibitory concentration, EKO-35 araC::acrB Pore: 80 µg/mL
[3]; EKO-35 araC::emrKY Pore compared to EKO-35-Pore
  Fold changes of MICs: 1 fold
[3]; EKO-35 araC::emrKY Pore, technical duplicate
  Minimum inhibitory concentration: 0.078 µg/mL
[4]; EKO-35 araC::mexCD Pore compared to EKO-35-Pore
  Fold changes of MICs: 8 fold
[4]; EKO-35 araC::mexCD Pore, technical duplicate
  Minimum inhibitory concentration: 0.625 µg/mL
[5]; EKO-35 araC::acrBD408A Pore compared to EKO-35-Pore
  Fold changes of MICs: 1 fold
[5]; EKO-35 araC::acrBD408A Pore, technical duplicate
  Minimum inhibitory concentration: 0.078 µg/mL
[6]; EKO-35 araC::mdtEF Pore compared to EKO-35-Pore
  Fold changes of MICs: 64 fold
[6]; [19]
  Minimum inhibitory concentration, EKO-35 araC::mdtEF Pore: 5 µg/mL
[7]; EKO-35 araC::acrD Pore compared to EKO-35-Pore
  Fold changes of MICs: 4 fold
[7]; [19]
  Minimum inhibitory concentration, EKO-35 araC::acrD Pore: 0.313 µg/mL
[8]; EKO-35 araC::emrAB Pore compared to EKO-35-Pore
  Fold changes of MICs: 16 fold
[8]; EKO-35 araC::emrAB Pore, technical duplicate
  Minimum inhibitory concentration: 1.25 µg/mL
[9]; EKO-35 araC::macAB Pore compared to EKO-35-Pore
  Fold changes of MICs: 1 fold
[9]; EKO-35 araC::macAB Pore, technical duplicate
  Minimum inhibitory concentration: 0.078 µg/mL
[10]; EKO-35 araC::mdtBC Pore compared to EKO-35-Pore
  Fold changes of MICs: 1 fold
[10]; EKO-35 araC::mdtBC Pore, technical duplicate
  Minimum inhibitory concentration: 0.078 µg/mL
[11]
  Minimum inhibitory concentration, EKO-35 araC::acrEF Pore: 80 µg/mL
[12]; Table 10, without pore
  Minimum inhibitory concentration (MIC), K-12: 320 µg/mL
[12]; Table 13A, non-porinated
  Minimum Inhibitory Concentration, K-12: 320 µg/mL
[13]; Table 10, without pore
  Minimum inhibitory concentration (MIC), ΔtolC: 0.156 µg/mL
[13]; Table 13A, non-porinated
  Minimum Inhibitory Concentration, ΔtolC: 0.156 µg/mL
[14]; EKO-35 compared to EKO-35 (reference)
  Fold change of MICs: 1 fold
[14]; Table 10, without pore, technical duplicate
  Minimum inhibitory concentration (MIC), EKO-35: 0.078 µg/mL
[14]; [20]
  Minimum Inhibitory Concentration, EKO-35: 0.078 µg/mL
[14]; synthetic efflux substrates of FIG. 12
  susceptibility of EKO-35 to the compound: susceptible
[15]; EKO-35 araC::mdtEF compared to EKO-35
  Fold change of MICs: 128 fold
[15]; [20]
  Minimum Inhibitory Concentration, EKO-35 araC::mdtEF: 10 µg/mL
[16]; EKO-35 araC::mdtBC compared to EKO-35
  Fold change of MICs: 1 fold
[16]; Table 13B, non-porinated, technical duplicate
  Minimum Inhibitory Concentration, EKO-35 araC::mdtBC: 0.078 µg/mL
[17]; Table 10, with pore
  Minimum inhibitory concentration (MIC), Pore ΔtolC: 0.156 µg/mL
[17]; Table 14A, porinated
  Minimum inhibitory concentration, ΔtolC-Pore: 0.156 µg/mL
[18]; Table 10, with pore
  Minimum inhibitory concentration (MIC), Pore K-12: 80 µg/mL
[18]; Table 14A, porinated
  Minimum inhibitory concentration, K-12 (WT)-Pore: 80 µg/mL
